The subject of test [1] is Sclerotinia sclerotiorum. Kind of test: Fungicidal activity against Sclerotinia sclerotiorum assessed as fungal inhibitory rate at 16 ug/ml relative to control. It is filed as functional.
The test system of test [2] is Fusarium oxysporum. Put plainly: Fungicidal activity against Fusarium oxysporum assessed as fungal inhibitory rate at 16 ug/ml relative to control. It is filed as functional.
Test [3] deals with Botrytis cinerea. Put plainly: Fungicidal activity against Botrytis cinerea assessed as fungal inhibitory rate at 16 ug/ml relative to control. It is filed as functional.
The subject of test [4] is Penicillium digitatum. Put plainly: Fungicidal activity against Penicillium digitatum assessed as fungal inhibitory rate at 16 ug/ml relative to control. It is filed as functional.
Test [5] concerns Colletotrichum lagenaria. Put plainly: Fungicidal activity against Colletotrichum lagenarium assessed as fungal inhibitory rate at 16 ug/ml relative to control. Format: functional.
Test [6] can be described thus: Inhibition of Botrytis cinerea CYP51 by ELISA.
In test [7] the test system is Botrytis cinerea. Kind of test: Fungicidal activity against Botrytis cinerea assessed as fungal growth reduction. Format: functional, organism-based.

Converted amounts (≈) assume the structure as drawn.

What is called inhibition is the relative decrease from the control value, in per cent. With `N#CC1=C(N)OC2=C(CN(C(=O)c3ccco3)C/C2=C\c2ccc(Br)s2)C1c1ccc(Br)s1` (stereo not given), the inhibition at 16 µg/mL in test [1] came to 31.6%; in test [2], 25%; in test [3], 66.5%; in test [4] it was 25.7%; in test [5] it was 28.1%.

Turning to `COC(=O)C1=C(N)OC2=C(CN(C(=O)c3cccs3)C/C2=C\c2cccs2)C1c1cccs1` (stereo not given), the inhibition at 16 µg/mL in test [1] was 40.5%; in test [2], 31.5%; in test [3], 78.4%; in test [4] it was 33.8%; in test [5] it was 36.4%.

What is called IC50 is the concentration that gives 50% inhibition. Lower therefore signals higher potency. As usually defined, the EC50 is the concentration needed to bring the measured effect to its halfway point. As to `N#CC1=C(N)OC2=C(CN(C(=O)c3cccs3)C/C2=C\c2ccc(Cl)s2)C1c1ccc(Cl)s1` (stereo not given), the IC50 in test [6] was found to be 2.625 µg/mL (≈ 4.93 µM). Further, the inhibition at 16 µg/mL in test [1] was found to be 50.8%; in test [2], 43.5%; in test [3] it was 92.9%; in test [4], 44.8%; in test [5], 48.7%. Also, the EC50 in test [7] stood at 2.25 µg/mL (≈ 4.22 µM).

`N#CC1=C(N)OC2=C(CN(C(=O)c3cccs3)C/C2=C\c2ccco2)C1c1ccco1` (stereo not given): in test [6], the IC50 was 1.649 µg/mL (≈ 3.82 µM). Further, the inhibition at 16 µg/mL was 58.5% in test [1]; 52.7% in test [2]; 100% in test [3]; 51.7% in test [4]; 57% in test [5]. Further, the EC50 in test [7] came out at 1.34 µg/mL (≈ 3.1 µM).

For the compound `COC(=O)C1=C(N)OC2=C(CN(C)C/C2=C\c2ccc(Br)o2)C1c1ccc(Br)o1` (stereo not given), the values for the inhibition at 16 µg/mL in test [1], in test [2] and in test [3] were 77.4%, 45.6% and 60%, respectively.

Consider `CN1CC2=C(OC(N)=C(C#N)C2c2ccc(Cl)s2)/C(=C/c2ccc(Cl)s2)C1` (stereo not given), for which the inhibition at 16 µg/mL came out at 64.9% in test [1]; 34.5% in test [2]; 48.5% in test [3]; 46.8% in test [4]; 66% in test [5].

Regarding `Cc1ccc(/C=C2\CN(C(=O)c3cccs3)CC3=C2OC(N)=C(C#N)C3c2ccc(C)s2)s1` (stereo not given), the inhibition at 16 µg/mL in test [1] came to 21.1%; in test [2] it was 20.3%; in test [3] it was 51.8%; in test [4], 20.1%; in test [5], 20.5%.

For the compound `COC(=O)C1=C(N)OC2=C(CN(C)C/C2=C\c2ccco2)C1c1ccco1` (stereo not given), the inhibition at 16 µg/mL is 73.7% in test [1]; 41.7% in test [2]; 56.7% in test [3]; 60.9% in test [4]; 76.5% in test [5].

The compound `N#CC1=C(N)OC2=C(CN(C(=O)c3cccs3)C/C2=C\c2ccc(Br)s2)C1c1ccc(Br)s1` (stereo not given) yielded an IC50 in test [6] of 3.031 µg/mL (≈ 4.88 µM). Further, the inhibition at 16 µg/mL turned out to be 48.9% in test [1], 41% in test [2], 42.2% in test [4] and 44.3% in test [5]. In addition, the EC50 in test [7] stood at 2.71 µg/mL (≈ 4.36 µM).

`N#CC1=C(N)OC2=C(CN(C(=O)c3cccs3)C/C2=C\c2ccc(Br)o2)C1c1ccc(Br)o1` (stereo not given): the IC50 in test [6] was found to be 1.522 µg/mL (≈ 2.58 µM). The inhibition at 16 µg/mL in test [1] was 62.7%; in test [2], 55.2%; in test [3], 100%; in test [4], 54.5%. Further, the EC50 in test [7] amounted to 1.3 µg/mL (≈ 2.21 µM).

For `COC(=O)C1=C(N)OC2=C(CN(C)C/C2=C\c2ccc(Cl)s2)C1c1ccc(Cl)s1` (stereo not given), the inhibition at 16 µg/mL in test [1] amounted to 49.6%; in test [2], 23.6%; in test [3] it was 35.2%; in test [4], 30%; in test [5] it was 42.9%.

For the compound `COC(=O)C1=C(N)OC2=C(CN(C(=O)c3cccs3)C/C2=C\c2ccc(Br)o2)C1c1ccc(Br)o1` (stereo not given), the IC50 in test [6] came out at 0.748 µg/mL (≈ 1.2 µM). Moreover, the inhibition at 16 µg/mL came to 80% in test [1]; 80.9% in test [2]; 100% in test [3]; 73.1% in test [4]; 78.3% in test [5]. The EC50 in test [7] was 0.61 µg/mL (≈ 0.98 µM).

`COC(=O)C1=C(N)OC2=C(CN(C(=O)c3ccco3)C/C2=C\c2ccc(Br)s2)C1c1ccc(Br)s1` (stereo not given): in test [6], the IC50 was determined as 1.138 µg/mL (≈ 1.78 µM). The inhibition at 16 µg/mL in test [1] worked out at 71.6%; in test [2] it was 67.5%; in test [3] it was 100%; in test [4], 64.3%; in test [5] it was 69.3%. The EC50 in test [7] was 0.976 µg/mL (≈ 1.53 µM).

For `CN1CC2=C(OC(N)=C(C#N)C2c2ccc(Br)o2)/C(=C/c2ccc(Br)o2)C1` (stereo not given), the inhibition at 16 µg/mL in test [1] is 87.2%; in test [2], 52.2%; in test [3], 72.8%; in test [4], 78.2%.

As for `CN1CC2=C(OC(N)=C(C#N)C2c2cccs2)/C(=C/c2cccs2)C1` (stereo not given), the inhibition at 16 µg/mL amounted to 68.8% in test [1], 38.9% in test [2], 50.2% in test [3] and 70.9% in test [5].

The compound `N#CC1=C(N)OC2=C(CN(C(=O)c3ccco3)C/C2=C\c2ccc(Br)o2)C1c1ccc(Br)o1` (stereo not given) returned an IC50 in test [6] of 1.86 µg/mL (≈ 3.24 µM). The inhibition at 16 µg/mL in test [1] was determined as 55.2%; in test [2], 50.5%; in test [3] it was 100%; in test [4], 49%; in test [5] it was 55.8%. Also, in test [7], the EC50 turned out to be 1.71 µg/mL (≈ 2.98 µM).

In test [6], `COC(=O)C1=C(N)OC2=C(CN(C(=O)c3cccs3)C/C2=C\c2ccc(Br)s2)C1c1ccc(Br)s1` (stereo not given) yielded an IC50 of 1.288 µg/mL (≈ 1.97 µM). Besides, the inhibition at 16 µg/mL stood at 68.5% in test [1]; 62.9% in test [2]; 100% in test [3]; 61% in test [4]; 66.2% in test [5]. Further, the EC50 in test [7] worked out at 1.04 µg/mL (≈ 1.59 µM).

Regarding `CN1CC2=C(OC(N)=C(C#N)C2c2ccc(Br)s2)/C(=C/c2ccc(Br)s2)C1` (stereo not given), the inhibition at 16 µg/mL in test [1] is 60.7%; in test [2], 31.2%; in test [3] it was 44.8%; in test [4], 42.5%; in test [5], 60.5%.

On to `COC(=O)C1=C(N)OC2=C(CN(C)C/C2=C\c2ccc(Br)s2)C1c1ccc(Br)s1` (stereo not given), for which the inhibition at 16 µg/mL in test [1] was 38.3%; in test [2] it was 20.3%; in test [3], 31.6%; in test [4] it was 22.5%; in test [5], 33.6%.

In the case of `Cc1ccc(/C=C2\CN(C(=O)c3ccco3)CC3=C2OC(N)=C(C#N)C3c2ccc(C)o2)o1` (stereo not given), the inhibition at 16 µg/mL stood at 46.2% in test [1], 38.1% in test [2], 85.4% in test [3] and 39% in test [4].

`COC(=O)C1=C(N)OC2=C(CN(C(=O)c3ccco3)C/C2=C\c2ccc(Cl)s2)C1c1ccc(Cl)s1` (stereo not given) gave an IC50 in test [6] of 0.831 µg/mL (≈ 1.51 µM). Moreover, the inhibition at 16 µg/mL in test [2] is 77.7%; in test [3], 100%; in test [4], 70%; in test [5], 75.7%. Moreover, in test [7], the EC50 is 0.761 µg/mL (≈ 1.39 µM).

Take `N#CC1=C(N)OC2=C(CN(C(=O)c3ccco3)C/C2=C\c2ccco2)C1c1ccco1` (stereo not given): the IC50 in test [6] stood at 1.425 µg/mL (≈ 3.43 µM). In addition, the inhibition at 16 µg/mL worked out at 65.4% in test [1], 100% in test [3] and 58.2% in test [4]. Further, the EC50 in test [7] turned out to be 1.17 µg/mL (≈ 2.82 µM).

`COC(=O)C1=C(N)OC2=C(CN(C(=O)c3ccco3)C/C2=C\c2cccs2)C1c1cccs1` (stereo not given): the inhibition at 16 µg/mL in test [1] was 43.4%; in test [2], 34%; in test [3], 82.2%; in test [4], 36.1%; in test [5], 38.2%.

As to `Cc1ccc(/C=C2\CN(C(=O)c3ccco3)CC3=C2OC(N)=C(C#N)C3c2ccc(C)s2)s1` (stereo not given), the inhibition at 16 µg/mL is 27.6% in test [2], 70.1% in test [3], 28.5% in test [4] and 31.1% in test [5].

As to `N#CC1=C(N)OC2=C(CN(C(=O)c3ccco3)C/C2=C\c2cccs2)C1c1cccs1` (stereo not given), the figures for the inhibition at 16 µg/mL in test [1], in test [2] and in test [3] were 27.9%, 23.8% and 62.7%, respectively.

For the compound `COC(=O)C1=C(N)OC2=C(CN(C)C/C2=C\c2cccs2)C1c1cccs1` (stereo not given), the inhibition at 16 µg/mL came out at 57.2% in test [1]; 25.8% in test [2]; 38.8% in test [3]; 34.2% in test [4]; 51.8% in test [5].

On to `Cc1ccc(/C=C2\CN(C(=O)c3cccs3)CC3=C2OC(N)=C(C#N)C3c2ccc(C)o2)o1` (stereo not given), for which the inhibition at 16 µg/mL worked out at 24.7% in test [1]; 22.9% in test [2]; 56.9% in test [3]; 21.9% in test [4]; 23.4% in test [5].

In the case of `Cc1ccc(/C=C2\CN(C)CC3=C2OC(N)=C(C#N)C3c2ccc(C)o2)o1` (stereo not given), the inhibition at 16 µg/mL was found to be 81.6% in test [1]; 48.5% in test [2]; 65.6% in test [3]; 74% in test [4]; 84.8% in test [5].

Consider `Cc1ccc(/C=C2\CN(C)CC3=C2OC(N)=C(C#N)C3c2ccc(C)s2)s1` (stereo not given), for which the inhibition at 16 µg/mL amounted to 58.6% in test [1], 27.6% in test [2], 38.9% in test [4] and 57.6% in test [5].

`N#CC1=C(N)OC2=C(CN(C(=O)c3cccs3)C/C2=C\c2cccs2)C1c1cccs1` (stereo not given): the inhibition at 16 µg/mL in test [1] came out at 37.6%; in test [3], 73.6%; in test [4], 30.2%; in test [5], 33.7%.

For the origin of these results see ChEMBL document CHEMBL5506031, “Design, Synthesis, Bioactive Evaluation, and Molecular Dynamics Simulation of Novel 4H-Pyrano[3,2-c]pyridine Analogues as Potential Sterol 14α-Demethylase (CYP51) Inhibitors” (J Med Chem, 2024).
